Measurements published in ChEMBL document CHEMBL1153335, “Incorporation of neutral C-terminal residues in 3-amidinophenylalanine-derived matriptase inhibitors” (Bioorg Med Chem Lett, 2009).

Assays:
[1] = target: Urokinase-type plasminogen activator (Homo sapiens, UniProt P00749); assay: Inhibition of uPA
Coagulation factor X = Coagulation factor X (Homo sapiens, UniProt P00742); assay: Inhibition of factor 10a
Plasminogen = Plasminogen (Homo sapiens, UniProt P00747); assay: Inhibition of plasmin
Plasminogen, sequence (P00747 97-580 limits assumed): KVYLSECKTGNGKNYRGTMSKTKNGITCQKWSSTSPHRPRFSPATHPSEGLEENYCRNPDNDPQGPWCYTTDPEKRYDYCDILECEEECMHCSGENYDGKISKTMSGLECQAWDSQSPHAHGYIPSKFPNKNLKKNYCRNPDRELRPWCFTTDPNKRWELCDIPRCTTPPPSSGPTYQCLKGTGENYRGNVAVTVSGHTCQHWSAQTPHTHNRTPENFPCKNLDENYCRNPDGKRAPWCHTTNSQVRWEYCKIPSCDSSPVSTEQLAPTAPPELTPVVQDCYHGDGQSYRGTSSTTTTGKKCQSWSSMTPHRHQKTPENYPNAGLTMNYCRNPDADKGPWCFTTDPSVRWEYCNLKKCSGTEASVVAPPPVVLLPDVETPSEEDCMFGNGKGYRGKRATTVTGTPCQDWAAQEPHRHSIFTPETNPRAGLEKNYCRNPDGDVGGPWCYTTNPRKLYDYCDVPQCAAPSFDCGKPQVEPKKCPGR
Plasminogen, sequence (P00747 581-810 limits assumed): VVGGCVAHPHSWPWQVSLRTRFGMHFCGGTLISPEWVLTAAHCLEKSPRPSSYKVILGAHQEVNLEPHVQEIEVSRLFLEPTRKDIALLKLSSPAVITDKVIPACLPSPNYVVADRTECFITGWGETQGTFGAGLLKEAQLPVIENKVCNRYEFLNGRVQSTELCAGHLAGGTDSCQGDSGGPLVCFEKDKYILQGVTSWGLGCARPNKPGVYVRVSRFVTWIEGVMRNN

[2] = target: T1, Suppressor of tumorigenicity 14 protein (Homo sapiens, UniProt Q9Y5Y6); assay: Inhibition of matriptase
T1 sequence (Q9Y5Y6 whole entry): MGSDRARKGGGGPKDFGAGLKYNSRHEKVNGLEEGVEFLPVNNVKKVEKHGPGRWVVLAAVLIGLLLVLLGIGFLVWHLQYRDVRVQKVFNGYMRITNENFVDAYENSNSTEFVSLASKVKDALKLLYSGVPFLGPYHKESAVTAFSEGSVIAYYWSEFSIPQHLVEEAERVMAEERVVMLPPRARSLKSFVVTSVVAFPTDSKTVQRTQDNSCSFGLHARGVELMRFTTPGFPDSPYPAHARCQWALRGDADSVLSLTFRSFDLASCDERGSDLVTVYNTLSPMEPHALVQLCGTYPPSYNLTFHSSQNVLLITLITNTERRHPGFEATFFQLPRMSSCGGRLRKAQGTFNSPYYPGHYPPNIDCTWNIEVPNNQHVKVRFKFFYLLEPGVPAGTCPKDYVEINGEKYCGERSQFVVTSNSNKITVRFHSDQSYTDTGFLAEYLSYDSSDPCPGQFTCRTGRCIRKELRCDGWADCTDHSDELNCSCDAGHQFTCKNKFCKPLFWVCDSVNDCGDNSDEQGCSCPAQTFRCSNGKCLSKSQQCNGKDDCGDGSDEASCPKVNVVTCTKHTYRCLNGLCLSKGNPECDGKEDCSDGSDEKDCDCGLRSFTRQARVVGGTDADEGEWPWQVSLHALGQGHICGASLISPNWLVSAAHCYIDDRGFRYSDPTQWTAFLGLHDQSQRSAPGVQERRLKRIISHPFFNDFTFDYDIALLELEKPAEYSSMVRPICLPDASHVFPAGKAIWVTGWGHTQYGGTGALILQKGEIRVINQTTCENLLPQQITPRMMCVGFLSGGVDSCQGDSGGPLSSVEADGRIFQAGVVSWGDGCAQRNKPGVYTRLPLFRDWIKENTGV

Prothrombin = Prothrombin (Homo sapiens, UniProt P00734); assay: Inhibition of thrombin
Rattus norvegicus [3] = assay: Cmax in rat assessed as melagatran level at 20 mg/kg, po after 120 mins; type: ADME, organism-based; design: dose 20 mg/kg, route oral; details: in vivo, 2 h
Rattus norvegicus [4] = assay: Cmax in rat assessed as N-hydroxy-melagatran level at 20 mg/kg, po after 120 mins; type: ADME, organism-based; design: dose 20 mg/kg, route oral; details: in vivo, 2 h

Coagulation factor X, sequence (P00742 41-179 limits assumed): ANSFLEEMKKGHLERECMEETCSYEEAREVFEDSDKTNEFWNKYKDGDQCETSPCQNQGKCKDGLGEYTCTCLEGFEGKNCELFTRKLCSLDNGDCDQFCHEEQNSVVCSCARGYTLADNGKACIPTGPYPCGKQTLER
Coagulation factor X, sequence (P00742 235-488 limits assumed): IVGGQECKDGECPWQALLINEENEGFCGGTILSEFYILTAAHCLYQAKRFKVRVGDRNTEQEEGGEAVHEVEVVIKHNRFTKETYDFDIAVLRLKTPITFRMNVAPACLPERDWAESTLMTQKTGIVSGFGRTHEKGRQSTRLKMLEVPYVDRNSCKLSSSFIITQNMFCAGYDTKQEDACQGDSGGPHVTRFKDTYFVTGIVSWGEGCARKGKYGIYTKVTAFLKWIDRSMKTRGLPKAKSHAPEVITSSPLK

N=C(N)c1cccc(C[C@H](NS(=O)(=O)c2cccc(NC(=O)CCN)c2)C(=O)N2CCCC[C@@H]2C(=O)O)c1
Ki [1]: 7.3 µM
Ki (Coagulation factor X): 11 µM
Ki (Plasminogen): 9.4 µM
Ki [2]: 0.18 µM
Ki (Prothrombin): 2.3 µM

N=C(N)c1cccc(C[C@H](NS(=O)(=O)c2cccc(NC(=O)CCN)c2)C(=O)N2CCC(CCCC(N)=O)CC2)c1
Ki [1]: 2.1 µM
Ki (Coagulation factor X): 8.2 µM
Ki (Plasminogen): 2.9 µM
Ki (Prothrombin): 0.67 µM

N=C(N)c1cccc(C[C@H](NS(=O)(=O)c2cccc(NC(=O)CCN)c2)C(=O)N2CCC(Cc3ccccc3)CC2)c1
Ki [1]: 2.2 µM
Ki (Coagulation factor X): 3.4 µM
Ki (Plasminogen): 2.8 µM
Ki [2]: 0.017 µM
Ki (Prothrombin): 0.35 µM

N=C(N)c1cccc(C[C@H](NS(=O)(=O)c2cccc(NC(=O)CCN)c2)C(=O)N2CCN(c3ccc(O)cc3)CC2)c1
Ki [1]: 8.37 µM
Ki (Coagulation factor X): 2.5 µM
Ki (Plasminogen): 2.5 µM
Ki [2]: 0.15 µM
Ki (Prothrombin): 14.5 µM

N=C(N)c1cccc(C[C@H](NS(=O)(=O)c2cccc(NC(=O)CCN)c2)C(=O)N2CCCC(C(N)=O)C2)c1 (some centres not stated)
Ki [1]: 7.4 µM
Ki (Coagulation factor X): 15 µM
Ki (Plasminogen): 1.3 µM
Ki (Prothrombin): 2.1 µM

CNC(=O)CCC(=O)N1CCN(C(=O)[C@H](Cc2cccc(C(=N)N)c2)NS(=O)(=O)c2cccc(NC(=O)CCN)c2)CC1
Ki [1]: 16.9 µM
Ki (Coagulation factor X): 44 µM
Ki (Plasminogen): 3.6 µM
Ki [2]: 0.053 µM
Ki (Prothrombin): 29 µM

CC1CCCCN1C(=O)[C@H](Cc1cccc(C(=N)N)c1)NS(=O)(=O)c1cccc(NC(=O)CCN)c1 (some centres not stated)
Ki [1]: 34.5 µM
Ki (Coagulation factor X): 17 µM
Ki (Plasminogen): 4.5 µM
Ki [2]: 0.47 µM
Ki (Prothrombin): 0.395 µM

N=C(N)c1cccc(C[C@H](NS(=O)(=O)c2cccc(NC(=O)CCN)c2)C(=O)N2CCN(C(=O)OCc3ccccc3)CC2)c1
Ki [1]: 3.3 µM
Ki (Coagulation factor X): 19 µM
Ki (Plasminogen): 1.3 µM
Ki [2]: 0.0075 µM
Ki (Prothrombin): 1.4 µM

N=C(N)c1cccc(C[C@H](NS(=O)(=O)c2cccc(NC(=O)CCN)c2)C(=O)N2CCCCC2)c1
Ki [1]: 2.6 µM
Ki (Coagulation factor X): 10 µM
Ki (Plasminogen): 3.3 µM
Ki [2]: 0.033 µM
Ki (Prothrombin): 0.27 µM

N=C(N)c1cccc(C[C@H](NS(=O)(=O)c2cccc(NC(=O)CCN)c2)C(=O)N2CCC(CCCC(=O)O)CC2)c1
Ki [1]: 17 µM
Ki (Coagulation factor X): 18 µM
Ki (Plasminogen): 3.3 µM
Ki (Prothrombin): 14 µM

COC(=O)CCCC1CCN(C(=O)[C@H](Cc2cccc(C(=N)N)c2)NS(=O)(=O)c2cccc(NC(=O)CCN)c2)CC1
Ki [1]: 2.5 µM
Ki (Coagulation factor X): 6.1 µM
Ki (Plasminogen): 2.8 µM
Ki (Prothrombin): 0.6 µM

CC1CCN(C(=O)[C@H](Cc2cccc(C(=N)N)c2)NS(=O)(=O)c2cccc(NC(=O)CCN)c2)CC1
Ki [1]: 3 µM
Ki (Coagulation factor X): 4.4 µM
Ki (Plasminogen): 6.2 µM
Ki [2]: 0.053 µM
Ki (Prothrombin): 0.11 µM

CCOC(=O)CN[C@@H](C(=O)N1CC[C@H]1C(=O)NCc1ccc(/C(N)=N\O)cc1)C1CCCCC1 [XIMELAGATRAN]
Cmax (Rattus norvegicus [3]): 1000 nM
Cmax (Rattus norvegicus [4]): 1100 nM

N=C(N)c1cccc(C[C@H](NS(=O)(=O)c2cccc(NC(=O)CCN)c2)C(=O)N2CCCC[C@H]2C(=O)O)c1
Ki [1]: 193 µM
Ki (Coagulation factor X): 30 µM
Ki (Plasminogen): 79 µM
Ki [2]: 11 µM
Ki (Prothrombin): 159 µM

N=C(N)c1cccc(C[C@H](NS(=O)(=O)c2cccc(NC(=O)CCN)c2)C(=O)N2CCNCC2)c1
Ki [1]: 0.88 µM
Ki (Coagulation factor X): 2.1 µM
Ki (Plasminogen): 2.56 µM
Ki [2]: 0.037 µM
Ki (Prothrombin): 71.7 µM

CCOC(=O)N1CCN(C(=O)[C@H](Cc2cccc(C(=N)N)c2)NS(=O)(=O)c2cccc(NC(=O)CCN)c2)CC1
Ki [1]: 9.2 µM
Ki (Coagulation factor X): 26 µM
Ki (Plasminogen): 13.4 µM
Ki [2]: 0.065 µM
Ki (Prothrombin): 5.1 µM

COC(=O)[C@H]1CCCCN1C(=O)[C@H](Cc1cccc(C(=N)N)c1)NS(=O)(=O)c1cccc(NC(=O)CCN)c1
Ki [1]: 76 µM
Ki (Coagulation factor X): 0.1 µM
Ki (Plasminogen): 4.9 µM
Ki [2]: 0.1 µM
Ki (Prothrombin): 24.2 µM

N=C(N)c1cccc(C[C@H](NS(=O)(=O)c2cccc(NC(=O)CCN)c2)C(=O)N2CCC(C(N)=O)CC2)c1
Ki [1]: 3.3 µM
Ki (Coagulation factor X): 2.5 µM
Ki (Plasminogen): 1.2 µM
Ki [2]: 0.013 µM
Ki (Prothrombin): 1.25 µM

COC(=O)[C@@H]1CCCCN1C(=O)[C@H](Cc1cccc(C(=N)N)c1)NS(=O)(=O)c1cccc(NC(=O)CCN)c1
Ki [1]: 126 µM
Ki (Coagulation factor X): 127 µM
Ki (Plasminogen): 69.4 µM
Ki [2]: 2.4 µM
Ki (Prothrombin): 10.6 µM

CNC(=O)CCCC1CCN(C(=O)[C@H](Cc2cccc(C(=N)N)c2)NS(=O)(=O)c2cccc(NC(=O)CCN)c2)CC1
Ki [1]: 3.3 µM
Ki (Coagulation factor X): 10 µM
Ki (Plasminogen): 1.6 µM
Ki (Prothrombin): 0.85 µM
